From patent US9695155B2, “Herbicidal substituted pyrimidinyloxy benzene compounds” (E. I. DU PONT DE NEMOURS AND COMPANY, priority 2013, dated 2017)

Experiments:
ragweed = assay: Test C postemergence; assay type: in vivo, Ambrosia elatior; settings: for Plant response rating, Ragweed: Postemergence, scale 0 to 100 (0 no effect, 100 complete control)
In short: (§1)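 Plants were kept under greenhouse conditions for 13–15 days following spray. Pre-emergent application went to soil (loam–sand), post-emergent to foliage at 1–4 leaves. Evaluation: visual, percent control against untreated checks.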

galium = assay: Test C postemergence; assay type: in vivo, Galium aparine; settings: for Plant response rating, Galium: Postemergence
In short: as §1

wild oat = assay: Test C postemergence; assay type: in vivo, Avena fatua; settings: for Plant response rating, Oat, Wild: Postemergence, scale 0 to 100 (0 no effect, 100 complete control)
In short: as §1

waterhemp = assay: Test C postemergence; assay type: in vivo, Amaranthus rudis; settings: for Plant response rating, Waterhemp: Postemergence, scale 0 to 100 (0 no effect, 100 complete control)
In short: as §1

morningglory = assay: Test C preemergence; assay type: in vivo, Ipomoea coccinea; settings: for Morningglory plant response rating: preemergence
In short: as §1

soybean = assay: Test C preemergence; assay type: in vivo, Glycine max; settings: for Soybean plant response rating: preemergence
In short: as §1

corn [1] = assay: Test A preemergence; assay type: in vivo, Zea mays
In short: (§2)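 Injury scores run from 0, no effect, to 100, complete control, judged by eye against untreated plants roughly 10 days after treatment. Chemicals carried a surfactant in a non-phytotoxic solvent and went onto loam–sand soil preemergence or onto one- to two-leaf seedlings postemergence.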

yellow nutsedge = assay: Test C postemergence; assay type: in vivo, Cyperus esculentus; settings: for Plant response rating, Nutsedge, Yellow: Postemergence, scale 0 to 100 (0 no effect, 100 complete control)
In short: as §1

wheat, winter [2] = assay: Test C postemergence; assay type: in vivo, Triticum aestivum; settings: for Plant response rating, Wheat: Postemergence, scale 0 to 100 (0 no effect, 100 complete control)
In short: as §1

corn [3] = assay: Test A postemergence; assay type: in vivo, Zea mays; settings: 0 to 100 scale where 0 is no effect and 100 is complete control
In short: as §2

barnyardgrass [4] = assay: Test A postemergence; assay type: in vivo, Echinochloa crus-galli; settings: 0 to 100 scale where 0 is no effect and 100 is complete control
In short: as §2

barnyardgrass [5] = assay: Test C postemergence; assay type: in vivo, Echinochloa crus-galli; settings: for Plant response rating, Barnyardgrass: Postemergence
In short: as §1

Italian ryegrass = assay: Test C preemergence; assay type: in vivo, Lolium multiflorum; settings: for Ryegrass, Italian plant response rating: preemergence
Source text: (§3) Seeds of plant species selected from blackgrass (Alopecurus myosuroides), Italian ryegrass (Lolium multiflorum), wheat, winter (winter wheat, Triticum aestivum), galium (catchweed bedstraw, Galium aparine), corn (Zea mays), large (Lg) crabgrass (Digitaria sanguinalis), giant foxtail (Setaria faberii), johnsongrass (Sorghum halepense), lambsquarters (Chenopodium album), morningglory (Ipomoea coccinea), yellow nutsedge (Cyperus esculentus), pigweed (Amaranthus retroflexus), ragweed (common ragweed, Ambrosia elatior), soybean (Glycine max), barnyardgrass (Echinochloa crus-galli), oilseed rape (Brassica napus), waterhemp (common waterhemp, Amaranthus rudis), kochia (Kochia scoparia), wild oat (Avena fatua), surinam grass (Brachiaria decumbens), foxtail, green (green foxtail, Setaria viridis), goosegrass (Eleusine indica), bromegrass, downy (downy bromegrass, Bromus tectorum), nightshade (eastern black nightshade, Solanum ptycanthum), cocklebur (common cocklebur, Xanthium strumarium), cupgrass, woolly (woolly cupgrass, Eriochloa villosa), bermudagrass (Cynodon dactylon), sunflower, (common oilseed sunflower, Helianthus annuus), Russian thistle (Salsola kali), and velvetleaf (Abutilon theophrasti) were planted into a blend of loam soil and sand and treated preemergence with test chemicals formulated in a non-phytotoxic solvent mixture which included a surfactant.
(§4) At the same time, plants selected from these crop and weed species and also barley, winter (winter barley, Hordeum vulgare), windgrass (Apera spica-venti), chickweed (common chickweed, Stellaria media), deadnettle (henbit deadnettle, Lamium amplexicaule), and canarygrass (littleseed canarygrass, Phalaris minor) were planted in pots containing Redi-Earth® planting medium (Scotts Company, 14111 Scottslawn Road, Marysville, Ohio 43041) comprising spaghnum peat moss, vermiculite, wetting agent and starter nutrients and treated with postemergence applications of test chemicals formulated in the same manner. Plants ranged in height from 2 to 18 cm (1- to 4-leaf stage) for postemergence treatments. Treated plants and controls were maintained in a greenhouse for 13 to 15 days, after which time all species were compared to controls and visually evaluated. Plant response ratings, summarized in Table C, are based on a scale of 0 to 100 where 0 is no effect and 100 is complete control. A dash (-) response means no test result.

velvetleaf = assay: Test C preemergence; assay type: in vivo, Abutilon theophrasti; settings: for Velvetleaf plant response rating: preemergence
In short: as §1

wheat, winter [6] = assay: Test C preemergence; assay type: in vivo, Triticum aestivum; settings: for Wheat plant response rating: preemergence
Source text: as §3, §4

[7] = 16 g ai/ha, postemergence, visual rating, scale 0 to 100 (0 no effect, 100 complete control), 13 to 15 days
[8] = 31 g ai/ha, scale 0 to 100 (0 no effect, 100 complete control), 13 to 15 days
[9] = 62 g ai/ha, scale 0 to 100 (0 no effect, 100 complete control)
[10] = 16 g ai/ha, scale 0 to 100 (0 no effect, 100 complete control)
[11] = 62 g ai/ha, scale 0 (no effect) to 100 (complete control)
[12] = 125 g ai/ha, scale 0 (no effect) to 100 (complete control)
[13] = Preemergence, 31 g ai/ha, scale 0 to 100, 0 no effect, 100 complete control

For `Fc1cnc(Oc2cccc(C(F)F)c2-n2cc(Cl)cn2)nc1` [Compound 94], the “Plant response rating (0 to 100), Ragweed” value (ragweed; 125 g ai/ha, postemergence) was 45, the “Plant response rating, Ragweed” value (ragweed; 31 g ai/ha, 13 to 15 days) was 15 and the “Plant response rating, Ragweed” value (ragweed; 62 g ai/ha) was 55. The “Galium plant response rating” value (galium; [7]) was 45, the “Plant response rating (0 to 100), Galium” value (galium; 125 g ai/ha, postemergence) was 80 and the “Plant response rating, Galium” value (galium; [8]) was 70. The “Plant response rating, Galium” value (galium; [9]) was 80, the “Plant response rating (0 to 100), Oat, Wild” value (wild oat; 125 g ai/ha, postemergence) was 5 and the “Plant response rating, Oat, Wild” value (wild oat; 31 g ai/ha, 13 to 15 days) was 0. The “Plant response rating, Oat, Wild” value (wild oat; 62 g ai/ha) was 0, the “Plant response rating (0 to 100), Waterhemp” value (waterhemp; 125 g ai/ha, postemergence) was 70 and the “Plant response rating, Waterhemp” value (waterhemp; 31 g ai/ha, 13 to 15 days) was 80. For the same compound, the “Plant response rating, Waterhemp” value (waterhemp; 62 g ai/ha) was 75, the “Morningglory plant response rating” value (morningglory; [10]) was 0 and the “Morningglory plant response rating” value (morningglory; [11]) was 40. The “Morningglory plant response rating” value (morningglory; [12]) was 90, the “Plant response rating, Morningglory” value (morningglory; [13]) was 30 and the “Soybean plant response rating” value (soybean; [10]) was 35. The “Soybean plant response rating” value (soybean; [11]) was 85, the “Soybean plant response rating” value (soybean; [12]) was 95 and the “Plant response rating, Soybean” value (soybean; [13]) was 50. For the same compound, the “Plant response rating, Corn” value (corn [1]; 125 g ai/ha, 0 to 100 scale where 0 is no effect and 100 is complete control) was 0, the “Corn plant response rating” value (corn [1]; 500 g ai/ha, 0 to 100 scale, 0 no effect, 100 complete control, approx. 10 days) was 30 and the “Plant response rating (0 to 100), Nutsedge, Yellow” value (yellow nutsedge; 125 g ai/ha, postemergence) was 10. The “Plant response rating, Nutsedge, Yellow” value (yellow nutsedge; 31 g ai/ha, 13 to 15 days) was 5, the “Plant response rating, Nutsedge, Yellow” value (yellow nutsedge; 62 g ai/ha) was 45 and the “Plant response rating (0 to 100), Wheat” value (wheat, winter [2]; 125 g ai/ha, postemergence) was 0. The “Plant response rating, Wheat” value (wheat, winter [2]; 31 g ai/ha, 13 to 15 days) was 0, the “Plant response rating, Wheat” value (wheat, winter [2]; 62 g ai/ha) was 0 and the “Plant response rating, Corn” value (corn [3]; 125 g ai/ha) was 30. For the same compound, the “Plant response rating, Corn” value (corn [3]; 500 g ai/ha) was 50, the “Plant response rating, Barnyardgrass” value (barnyardgrass [4]; 125 g ai/ha) was 20 and the “Plant response rating, Barnyardgrass” value (barnyardgrass [4]; 500 g ai/ha) was 90. The “Barnyardgrass plant response rating” value (barnyardgrass [5]; [7]) was 10, the “Plant response rating (0 to 100), Barnyardgrass” value (barnyardgrass [5]; 125 g ai/ha, postemergence) was 10 and the “Plant response rating, Barnyardgrass” value (barnyardgrass [5]; [8]) was 10. For the same compound, the “Plant response rating, Barnyardgrass” value (barnyardgrass [5]; [9]) was 10, the “Ryegrass, Italian plant response rating” value (Italian ryegrass; [10]) was 0 and the “Ryegrass, Italian plant response rating” value (Italian ryegrass; [11]) was 10. The “Ryegrass, Italian plant response rating” value (Italian ryegrass; [12]) was 50, the “Plant response rating, Ryegrass, Italian” value (Italian ryegrass; [13]) was 0 and the “Velvetleaf plant response rating” value (velvetleaf; [10]) was 40. For the same compound, the “Velvetleaf plant response rating” value (velvetleaf; [11]) was 100, the “Velvetleaf plant response rating” value (velvetleaf; [12]) was 100 and the “Plant response rating, Velvetleaf” value (velvetleaf; [13]) was 100. For the same compound, the “Wheat plant response rating” value (wheat, winter [6]; [10]) was 0, the “Wheat plant response rating” value (wheat, winter [6]; [11]) was 0 and the “Wheat plant response rating” value (wheat, winter [6]; [12]) was 5. For the same compound, the “Plant response rating, Wheat” value (wheat, winter [6]; [13]) was 0.
